Laboratory results taken from patent publication US7427395B2, “Chemotherapeutic agent-incorporated pharmaceutical preparation” (Genomidea Inc., priority 2002, dated 2008).
Where two headings read alike, the source gives them in different places.

Key:
[1] = system: Mouse colon cancer-derived CT-26 cells; assay: In vivo experiment (2): tumor volume and tumor weight of transplanted CT-26, HVJ-E/BLM into the tumor with or without intraperitoneal CDDP (Example 3); set-up: species or system BALB/cAnNCrj male mice
[2] = system: mouse colon carcinoma cell CT26; settings: 30 min at 37° C., counted 2 days later
Description: A microtube containing the sample was centrifuged at 15,000 rpm for 15 minutes at 4° C. to give the HVJ-E vector as a precipitate, and the supernatant was removed. […] Further, 2 μl of 3% Triton-X100 was added thereto to prepare a sample containing Triton-X100 at a final concentration of 0.1%, which was then left on ice for 15 minutes. Thereafter, 500 μl PBS solution was added thereto. The microtube was centrifuged at 15,000 rpm for 15 minutes at 4° C., and the supernatant was removed without removing the precipitate, and 500 μl PBS solution was added again to the precipitate. The microtube was centrifuged again at 15,000 rpm for 15 minutes at 4° C., and the supernatant was removed without removing the precipitate.
The resulting precipitate was suspended in 180 μl PBS, and the resulting sample solution was pipetted in a volume of 30 μl/microtube into 6 microtubes. Five microlitters of protamine sulfate solution prepared at 5 mg/ml and 500 μl DMEM solution (Dulbecco's modified Eagle medium) were added to each tube.
The above sample solution was added to mouse colon carcinoma cell CT26 prepared on a 6-well plate. The plate was kept for 30 minutes in an incubator at 37° C., and then the medium was exchanged with 500 μl medium (DMEM containing 10% FCS). The cells were incubated for 2 days in a CO2 incubator at 37° C. Two days later, the number of viable cells was counted to evaluate the anticancer effect.

colon carcinoma CT26 = assay: In vivo experiment: tumor volume of subcutaneously transplanted CT26 after administration into the tumor (Example 2); settings: for average tumor volume (mean): 100 μl/mouse into the tumor, n=8
Description: A microtube containing the sample was centrifuged at 15,000 rpm for 15 minutes at 4° C. to give the HVJ-E vector as a precipitate, and the supernatant was removed. […] Further, 2 μl of 3% Triton-X100 was added thereto to the final concentration of 0.1%, which was then kept on ice for 15 minutes. Thereafter, 500 μl PBS solution was added thereto. The microtube was centrifuged at 15,000 rpm for 15 minutes at 4° C., and the supernatant was removed without removing the precipitate, and 500 μl PBS solution was added thereto. The microtube was centrifuged again at 15,000 rpm for 15 minutes at 4° C., and the supernatant was removed without removing the precipitate. The resulting precipitate was suspended in 120 μl PBS.
In this animal experiment, BALB/c mice (8-week-old, male) were used. […] The CT-26 cells to be transplanted were suspended in DMEM medium containing 10% FCS, and 5×10^6 cells (100 μl PBS/mouse) were transplanted in the back. The mice were anesthetized by intraperitoneal administration of 500 μl of 20-fold-diluted Nembutal injection. The volume of the transplanted cancer cells was estimated by calculation of major axis×minor axis×minor axis/2. When the diameter of the tumor reached 7 to 8 mm one week after transplantation, 100 μl of the sample prepared above was administered into the site of the cancer in the mouse. On Days 7, 10, 13, 16 and 19 (that is, 3-day intervals) after transplantation of the cancer cells, the tumor diameter was measured to evaluate the anticancer effect. The number of animals was 8 in each group.

[3] = Day 16 (9 days after sample administration)

Molecule: [NH2][Pt]([NH2])([Cl])[Cl] [CDDP, cisplatin]
- tumor weight on Day 21 after administration ([1]; CDDP 0.2 mg/body i.p. once, alone or with 13 mg/tumor HVJ-E/BLM into the tumor): 1619.79 mg
- average tumor volume on Day 21 ([1]; CDDP 0.2 mg/body i.p. once, alone or with 13 mg/tumor HVJ-E/BLM into the tumor, 10 mice): 1720.14 mm^3
- tumor weight on Day 21 after administration ([1]; CDDP 0.4 mg/body i.p. once, alone or with HVJ-E into the tumor): 1164.13 mg
- average tumor volume on Day 21 ([1]; CDDP 0.4 mg/body i.p. once, 3 mice): 1367.62 mm^3

Molecule: bleomycin
- Number of viable cells (mean) ([2]; 1/50 bleomycin group: bleomycin 50 μg/DMEM 500 μl/well): 81800
- Number of viable cells (mean) ([2]; 1/500 bleomycin group: bleomycin 5 μg/DMEM 500 μl/well): 164600
- Number of viable cells (mean) ([2]; 1/500 bleomycin group: bleomycin 5 μg/DMEM 500 μl/well, listed as bleomycin): 164,600
- Number of viable cells (mean) ([2]; 1/5,000 bleomycin group: bleomycin 500 ng/DMEM 500 μl/well): 196800
- Number of viable cells (mean) ([2]; 1/5,000 bleomycin group: bleomycin 500 ng/DMEM 500 μl/well, listed as bleomycin): 196,800
- average tumor volume (mean) (colon carcinoma CT26; Day 7 (time of sample administration)): 158.4 mm^3
- average tumor volume (mean) (colon carcinoma CT26; Day 10 (Day 3 after sample administration)): 413.70 mm^3
- average tumor volume (mean) (colon carcinoma CT26; Day 13): 754.7 mm^3
- tumor volume shrinkage effect relative to the PBS administration group (0%) (colon carcinoma CT26; [3]): 3.4%
- average tumor volume (mean) (colon carcinoma CT26; [3]): 1234.6 mm^3
- average tumor volume (mean) (colon carcinoma CT26; Day 16 (9 days after sample administration), listed as BLM): 1,235 mm^3
- antitumor effect in vivo (in words) (colon carcinoma CT26; direct administration into the solid tumor): Antitumor effect was hardly recognized
